Tested on: PDC KRAS tumor spheroids with HUVEC/MSC, viability
Assay: Anticancer human tumor 349418-098-R-PDC patient-derived lung adenocarcinoma cell line growth inhibition [KRAS2]
Conditions: for IC50: curve of first compound; for viability, T/C: stronger effect = lower value
Summary of the method: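 Combination screen of spheroid viability in tumor-cell co-cultures with endothelial (HUVEC) and mesenchymal stem cell stroma. Each agent was tested in half-log dilutions, topping at clinical Cmax or at 10 microM without a known Cmax.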

[1] = second compound 0.1 µM, first compound 0.0316 µM
[2] = second compound 0.1 µM, first compound 0.1 µM
[3] = second compound 0.1 µM, first compound 0.316 µM
[4] = second compound 0.1 µM, first compound 1 µM
[5] = second compound 0.1 µM, first compound 3.16 µM
[6] = second compound 0.1 µM, first compound 10 µM
[7] = second compound 0.316 µM, first compound 0.0316 µM
[8] = second compound 0.316 µM, first compound 0.1 µM
[9] = second compound 0.316 µM, first compound 0.316 µM
[10] = second compound 0.316 µM, first compound 1 µM
[11] = second compound 0.316 µM, first compound 3.16 µM
[12] = second compound 0.316 µM, first compound 10 µM
[13] = second compound 1 µM, first compound 0.0316 µM
[14] = second compound 1 µM, first compound 0.1 µM
[15] = second compound 1 µM, first compound 0.316 µM
[16] = second compound 1 µM, first compound 1 µM
[17] = second compound 1 µM, first compound 3.16 µM
[18] = second compound 1 µM, first compound 10 µM
[19] = second compound 3.16 µM, first compound 0.0316 µM
[20] = second compound 3.16 µM, first compound 0.1 µM
[21] = second compound 3.16 µM, first compound 0.316 µM
[22] = second compound 3.16 µM, first compound 1 µM
[23] = second compound 3.16 µM, first compound 3.16 µM
[24] = second compound 3.16 µM, first compound 10 µM
[25] = second compound 10 µM, first compound 0.0316 µM
[26] = second compound 10 µM, first compound 0.1 µM
[27] = second compound 10 µM, first compound 0.316 µM
[28] = second compound 10 µM, first compound 1 µM
[29] = second compound 10 µM, first compound 3.16 µM
[30] = second compound 10 µM, first compound 10 µM
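Further: spheroids exposed to compounds for seven days before readout.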

O=C(c1cc(Cc2n[nH]c(=O)c3ccccc23)ccc1F)N1CCN(C(=O)C2CC2)CC1 + C=CC(=O)N1CCN(c2nc(=O)n(-c3c(C)ccnc3C(C)C)c3nc(-c4c(O)cccc4F)c(F)cc23)C(C)C1
IC50 (second compound 0.1 µM): 95.8 nM
IC50 (second compound 0.316 µM): 350 nM
IC50 (second compound 1 µM): 1630 nM
IC50 (second compound 3.16 µM): 1310 nM
IC50 (second compound 10 µM): < 31.6 nM
viability, T/C [1]: 84.6%
viability, T/C [2]: 47.1%
viability, T/C [3]: 32.3%
viability, T/C [4]: 21.4%
viability, T/C [5]: 17.5%
viability, T/C [6]: 14.8%
viability, T/C [7]: 92.6%
viability, T/C [8]: 86.3%
viability, T/C [9]: 52.2%
viability, T/C [10]: 26.3%
viability, T/C [11]: 30%
viability, T/C [12]: 17.2%
viability, T/C [13]: 100%
viability, T/C [14]: 92.8%
viability, T/C [15]: 83.1%
viability, T/C [16]: 71.2%
viability, T/C [17]: 20.6%
viability, T/C [18]: 20.9%
viability, T/C [19]: 68.7%
viability, T/C [20]: 67.2%
viability, T/C [21]: 75.8%
viability, T/C [22]: 51.9%
viability, T/C [23]: 33.7%
viability, T/C [24]: 18.3%
viability, T/C [25]: 42%
viability, T/C [26]: 43.9%
viability, T/C [27]: 36.3%
viability, T/C [28]: 27%
viability, T/C [29]: 29.2%
viability, T/C [30]: 14%

CCNC(=O)CC1N=C(c2ccc(Cl)cc2)c2cc(OC)ccc2-n2c(C)nnc21 (stereo not given) + CNCc1ccccc1-c1csc(C(C)Nc2nc(C)nc3cc(OC)c(OC)cc23)c1
IC50 (second compound 0.1 µM): 133 nM
IC50 (second compound 0.316 µM): 124 nM
IC50 (second compound 1 µM): 77.3 nM
IC50 (second compound 3.16 µM): < 31.6 nM
IC50 (second compound 10 µM): < 31.6 nM
viability, T/C [1]: 103%
viability, T/C [2]: 58.5%
viability, T/C [3]: 24.3%
viability, T/C [4]: 12.4%
viability, T/C [5]: 2.7%
viability, T/C [6]: 1.11%
viability, T/C [7]: 107%
viability, T/C [8]: 55.7%
viability, T/C [9]: 24.7%
viability, T/C [10]: 13.5%
viability, T/C [11]: 2.81%
viability, T/C [12]: 1.21%
viability, T/C [13]: 86.6%
viability, T/C [14]: 39.5%
viability, T/C [15]: 13.9%
viability, T/C [16]: 4.94%
viability, T/C [17]: 0.98%
viability, T/C [18]: 0.31%
viability, T/C [19]: 0.11%
viability, T/C [20]: 0.08%
viability, T/C [21]: 0.04%
viability, T/C [22]: 0.02%
viability, T/C [23]: 0.01%
viability, T/C [24]: 0.08%
viability, T/C [25]: 0.11%
viability, T/C [26]: 0.11%
viability, T/C [27]: 0.09%
viability, T/C [28]: 0.09%
viability, T/C [29]: 0.08%
viability, T/C [30]: 0.28%

Reference: PubChem BioAssay AID1963866 (Molecular Pharmacology Branch, DTP, NCI, 2024)
